Structures can show the parent of a compound that is named as a salt. Where two headings read alike, the source gives them in different places.
Assays:
Type in all cases: cell-based
AsPC-1 = experiment: Cell viability analysis (WST-1), AsPC-1; conditions: Homo sapiens, read-out: survival rate (viability) of cells
Protocol: (§1) The cell numbers were counted and reseed as 2×10^6 in culture plate/flask. Then, the culture medium were added to a volume of 10 ml, and the cells were cultured for 2-3 days. Then, the cells were suspended for loading into 96-well plates. The number of cells was 3000 and the volume of the culture medium was 100 μl each well.
(§2) Removing the original culture medium from 96-well plate. Then add 100 μl of commercially drug at a concentration of 10 μM per well. After 72 hours, add the diluted WST-1 reagent to the well with 100 μl/well, and the diluted WST-1 reagent was acquired from the dilution of 9:1 medium and WST-1 stock reagent. Finally, the total volume of each well was 200 μl/well. Culture the 96-well plate at 37° C. for 30 to 90 minutes. Detecting and calculate the survival rate of each cancer cells with an ELISA reader at OD450 nm. The lower viability of cancer cells represents better inhibition effect via the Cinacalcet HCl drug. Otherwise, the higher viability of cancer cells represents worse inhibition effect via the Cinacalcet HCl drug.
(§3) This inhibition test of Cinacalcet HCl on gastrointestinal tract-related cancer cells were using gastric cancer cell lines AGS and MKN-45 (Table 9), hepatic cancer cell lines HepG2 and Hep3B (Table 10), colorectal cancer cell lines HCT116-wt and LoVo (Table 11), pancreatic cancer cell line AsPC-1 and BxPC-3(Table 12), tongue cancer cell line SAS (Table 13). The inhibitory tests of Cinacalcet HCl were performed 4 times for each cell lines and then the average value of the inhibitory tests was calculated.

BxPC-3 = experiment: Cell viability analysis (WST-1), BxPC-3; conditions: Homo sapiens, read-out: survival rate (viability) of cells
Protocol: as §1, §2, §3

BCC = experiment: Cell viability analysis (WST-1), BCC; conditions: read-out: survival rate (viability) of cells
Protocol: as §1, §2
(§4) This inhibition test of Cinacalcet HCl on other cancer cells were using osteosarcoma cell line U2OS (Table 14), skin cancer cell lines A375 and BCC (Table 15). The inhibitory tests of Cinacalcet HCl were performed 4 times for each cell lines and then the average value of the inhibitory tests was calculated.

breast cancer cells = experiment: Summary of cell viability, breast cancer cells; conditions: 72 hours, read-out: Inhibitory effect
Protocol: as §1, §2
(§5) Cinacalcet HCl is having different inhibitory effect on different tumor cell type even in the same cancer. […] (FIG. 1)

PC-3 = experiment: Cell viability analysis (WST-1), PC-3; conditions: Homo sapiens, read-out: survival rate (viability) of cells
Protocol: as §1, §2
(§6) This inhibition test of Cinacalcet HCl on endocrine-related cancer cells were using prostate cancer cell lines PC-3 and LNCap (Table 6), breast cancer cell lines MCF7 and MDA-MB-231 (Table 7), and ovarian cancer cell lines NIH-OVCAR-3 and TOV-21G (Table 8). The inhibitory tests of Cinacalcet HCl were performed 4 times for each cell lines and then the average value of the inhibitory tests was calculated.

bladder cancer cells = experiment: Summary of cell viability, bladder cancer cells; conditions: 72 hours, read-out: Inhibitory effect
Protocol: as §1, §2, §5

NIH-OVCAR-3 = experiment: Cell viability analysis (WST-1), NIH-OVCAR-3; conditions: Homo sapiens, read-out: survival rate (viability) of cells
Protocol: as §1, §2, §6

MDA-MB-231 = experiment: Cell viability analysis (WST-1), MDA-MB-231; conditions: Homo sapiens, read-out: survival rate (viability) of cells
Protocol: as §1, §2, §6

A375 = experiment: Cell viability analysis (WST-1), A375; conditions: Homo sapiens, read-out: survival rate (viability) of cells
Protocol: as §1, §2, §4

Hep3B = experiment: Cell viability analysis (WST-1), Hep3B; conditions: Homo sapiens, read-out: survival rate (viability) of cells
Protocol: as §1, §2, §3

U2OS = experiment: Cell viability analysis (WST-1), U2OS; conditions: Homo sapiens, read-out: survival rate (viability) of cells
Protocol: as §1, §2, §4

HeLa = experiment: Cell viability analysis (WST-1), HeLa; conditions: Homo sapiens, read-out: survival rate (viability) of cells
Protocol: as §1, §2
(§7) This inhibition test of Cinacalcet HCl on abdominal-related cancer cells were using bladder cancer cell line TSGH and T24 (Table 3), cervical cancer cell lines HeLa and C-33A (Table 4), renal cancer cell line 786-O (Table 5). The inhibitory tests of Cinacalcet HCl were performed 4 times for each cell lines and then the average value of the inhibitory tests was calculated.

TSGH = experiment: Cell viability analysis (WST-1), TSGH; conditions: read-out: survival rate (viability) of cells
Protocol: as §1, §2, §7

cervical cancer cells = experiment: Summary of cell viability, cervical cancer cells; conditions: 72 hours, read-out: Inhibitory effect
Protocol: as §1, §2, §5

Compound: C[C@@H](NCCCc1cccc(C(F)(F)F)c1)c1cccc2ccccc12 [Cinacalcet HCl, Cinacalcet hydrochloride]
- viability at 10 µM (AsPC-1; ASPC1, 10 μM, 72 hours, test 1-4-30 min): 71.9%
- viability at 10 µM (AsPC-1; ASPC1, 10 μM, 72 hours, test 1-7-3-30 min): 61.6%
- viability at 10 µM (AsPC-1; ASPC1, 10 μM, 72 hours, test 1-7-4-30 min): 81.7%
- viability at 10 µM (AsPC-1; ASPC1, 10 μM, 72 hours, test 1-7-7-30 min): 60.4%
- viability at 10 µM (AsPC-1; ASPC1, 72 h, 10 μM, Average of tests): 68.9%
- viability at 10 µM (BxPC-3; BXPC-3, 10 μM, 72 hours, test 3-4-30 min): 76.2%
- viability at 10 µM (BxPC-3; BXPC-3, 10 μM, 72 hours, test 3-7-3-30 min): 64.6%
- viability at 10 µM (BxPC-3; BXPC-3, 10 μM, 72 hours, test 3-7-4-30 min): 78.8%
- viability at 10 µM (BxPC-3; BXPC-3, 10 μM, 72 hours, test 3-7-7-30 min): 100%
- viability at 10 µM (BxPC-3; BXPC-3, 72 h, 10 μM, Average of tests): 79.9%
- viability at 10 µM (BCC; 72 h, average of tests): 111%
- viability at 10 µM (BCC; 72 hours, test 0602-30 min): 114%
- viability at 10 µM (BCC; 72 hours, test 0605-10 min): 106%
- viability at 10 µM (BCC; 72 hours, test 0607-10 min): 113%
- viability at 10 µM (breast cancer cells): 108%
- viability at 10 µM (PC-3; PC-3, 10 μM, 72 hours, test PC-3-0524-10 min): 103%
- viability at 10 µM (PC-3; PC-3, 10 μM, 72 hours, test PC-3-0526-10 min): 132%
- viability at 10 µM (PC-3; PC-3, 10 μM, 72 hours, test PC-3-0529-10 min): 120%
- viability at 10 µM (PC-3; PC-3, 10 μM, 72 hours, test PC-3-0531-10 min): 135%
- viability at 10 µM (PC-3; PC-3, 72 h, 10 μM, average of tests): 122%
- viability at 10 µM (bladder cancer cells): 90.4%
- viability at 10 µM (NIH-OVCAR-3; OVCAR-3, 10 μM, 72 hours, test 7-3-30 min): 90.7%
- viability at 10 µM (NIH-OVCAR-3; OVCAR-3, 10 μM, 72 hours, test 7-4-30 min): 111%
- viability at 10 µM (NIH-OVCAR-3; OVCAR-3, 10 μM, 72 hours, test 7-7-30 min): 100%
- viability at 10 µM (NIH-OVCAR-3; OVCAR-3, 10 μM, 72 hours, test -4-30 min): 111%
- viability at 10 µM (NIH-OVCAR-3; OVCAR-3, 72 h, 10 μM, average of tests): 103%
- viability at 10 µM (MDA-MB-231; MDA-MB-231, 10 μM, 72 hours, test 0612-10 min): 92.3%
- viability at 10 µM (MDA-MB-231; MDA-MB-231, 10 μM, 72 hours, test 0614-10 min): 84.9%
- viability at 10 µM (MDA-MB-231; MDA-MB-231, 10 μM, 72 hours, test 0616-10 min): 60.8%
- viability at 10 µM (MDA-MB-231; MDA-MB-231, 10 μM, 72 hours, test 0619-10 min): 92.8%
- viability at 10 µM (MDA-MB-231; MDA-MB-231, 72 h, 10 μM, average of tests): 82.7%
- viability at 10 µM (A375; A-375, 10 μM, 72 hours, test 0602-30 min): 117%
- viability at 10 µM (A375; A-375, 10 μM, 72 hours, test 0605-10 min): 95.6%
- viability at 10 µM (A375; A-375, 10 μM, 72 hours, test 0607-10 min): 94.4%
- viability at 10 µM (A375; A-375, 10 μM, 72 hours, test 0609-10 min): 108%
- viability at 10 µM (A375; A-375, 72 h, 10 μM, average of tests): 104%
- viability at 10 µM (Hep3B; 72 h, average of tests): 134%
- viability at 10 µM (Hep3B; 72 hours, test 0612-20 min): 143%
- viability at 10 µM (Hep3B; 72 hours, test 0614-20 min): 125%
- viability at 10 µM (Hep3B; 72 hours, test 0616-20 min): 152%
- viability at 10 µM (Hep3B; 72 hours, test 0619-20 min): 117%
- viability at 10 µM (U2OS; 72 h, average of tests): 77.4%
- viability at 10 µM (U2OS; 72 hours, test 6-26-10 min): 82.6%
- viability at 10 µM (U2OS; 72 hours, test 6-28-10 min): 86.7%
- viability at 10 µM (U2OS; 72 hours, test 6-30-10 min): 64.9%
- viability at 10 µM (U2OS; 72 hours, test 7-3-10 min): 75.3%
- viability at 10 µM (HeLa; 72 h, average of tests): 111%
- viability at 10 µM (HeLa; 72 hours, test 0524-10 min): 110%
- viability at 10 µM (HeLa; 72 hours, test 0526-10 min): 119%
- viability at 10 µM (HeLa; 72 hours, test 0529-10 min): 104%
- viability at 10 µM (HeLa; 72 hours, test 0531-10 min): 113%
- viability at 10 µM (TSGH; 72 h, average of tests): 59.8%
- viability at 10 µM (TSGH; 72 hours, test 0510-10 min): 57.3%
- viability at 10 µM (TSGH; 72 hours, test 0512-10 min): 73.2%
- viability at 10 µM (TSGH; 72 hours, test 0515-10 min): 74.7%
- viability at 10 µM (TSGH; 72 hours, test 0517-10 min): 33.9%
- viability at 10 µM (cervical cancer cells): 111%

— patent publication US20170304228A1, “NEW INDICATION OF CINACALCET HCL PHARMACEUTICAL COMPOSITION FOR TREATING CANCER” (LAUNX BIOMEDICAL CO., LTD., priority 2014, published 2017)
